Reference: US20030109570A1 (priority 2002, published 2003)
Where a name gives a salt, the structure may show the parent alone.

Legend:
human PPARα receptor = target: T1, human PPARα receptor (Homo sapiens, UniProt Q07869); experiment: Luciferase assay using human PPARα receptor (Gal4 chimera, CV-1 cells); type: cell-based; conditions: 24 h, luciferase activity of Wy-14.643 at 10 μM = 100, read-out: PPARα agonist activity, Relative activity
T1 construct: and; expressed in transfected cells; host or cells: CV-1 cells, pSG5-based Gal4-PPAR expression vector
T1 sequence (Q07869 167-468): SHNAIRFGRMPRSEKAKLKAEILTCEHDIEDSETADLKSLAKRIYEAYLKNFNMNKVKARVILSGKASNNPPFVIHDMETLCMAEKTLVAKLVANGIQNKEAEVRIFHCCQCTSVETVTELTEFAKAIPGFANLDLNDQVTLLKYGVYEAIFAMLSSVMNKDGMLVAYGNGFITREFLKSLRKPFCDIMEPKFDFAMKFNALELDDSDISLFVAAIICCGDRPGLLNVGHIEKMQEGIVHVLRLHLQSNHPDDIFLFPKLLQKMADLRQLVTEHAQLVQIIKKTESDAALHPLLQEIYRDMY
Experimental: (§1) 1) Materials for a Luciferase Assay Using Human PPARα and γ
(§2) The entire procedure was conducted using a usual yeast one- or two-hybrid system according to a basic genetic engineering process.
(§3) pGL2-UAS5-TK-luc was prepared as a reporter plasmid having a response sequence of the Gal4 protein as an yeast basic transcription factor and a luciferase gene (luc) under the control by an enhancer sequence with five times repeats of UAS and the thymidine kinase (TK) promoter promoter.
(§4) A vector expressing a chimera receptor in which a ligand binding region in an intranuclear receptor human PPARα or γ receptor was fused to the […] terminus in the DNA binding region of the yeast Gal4 protein was prepared as follows. Specifically, using pSG5 (trade name, STRATAGENE, Catalogue No.216201) as a basic expression vector, the structural gene was replaced with that of a chimera receptor.
(§5) A DNA encoding the ligand binding region in human PPARα or γ receptor was inserted downstream of the DNA binding region in the Gal4 protein, i.e., the DNA encoding the 1st to 147th amino acid sequence such that the frames were aligned and it was inserted downstream of the promoter-enhancer region in pSG5 (trade name). For localizing the expressed chimera receptor in the nucleus, the DNA sequence was constructed such that a nuclear transition signal derived from SV-40T antigen, Ala Pro Lys Lys Lys Arg Lys Val Gly (SEQ ID NO. 4) was present at the amino terminus of the ligand binding region in the human PPARα or γ receptor.
(§6) As the structural gene segment for a ligand binding region in the human PPARα or γ receptor, a DNA was used which encoded:
human PPARα ligand binding region: Ser^167-Tyr^468; and
(§7) 2) Luciferase Assay Using the Human PPARα or γ Receptor
(§8) CV-1 cells used as a host cell were cultured as usual. Specifically, a fetal calf serum (Intergen, Catalogue No.1020-90) was added to the Dulbecco modified eagle medium (DMEM) to the final concentration of 10%, and penicillin G and streptomycin sulfate were then added to the final concentrations of 50 U/mL and 50 μg/mL, respectively. In the medium, the cells were cultured at 37° C. under 5% carbon dioxide.
(§9) The day before transfection, the cells were inoculated in a 24 well plate at 1.5×10^5 cells/well in advance. LipofectAMINE (trade name, GIBCOBRL, Catalogue No.26300-61) was used for transfection. Specifically, for each well, in 40 μL of a serum-free medium Opti-MEM (trade name, GIBCOBRL, Catalogue No.31985-070) were well mixed 100 ng of a reporter plasmid, 12.5 ng of Gal4-PPAR expression vector, 200 ng of pRL-TK (trade name) as an internal control, 287.5 ng of pGEM-3Zf(+) (trade name, PROMEGA, Catalogue No. P2271) as a carrier DNA and 2.6 μL of LipofectAMINE (trade name, GIBCOBRL, Catalogue No.26300-61). To the mixture was added 170.2 μL of Opti-MEM (trade name). After washing with PBS (Phosphate Buffered Saline) and Opti-MEM (trade name), the mixture was added to the above cells. After culturing at 37° C. for 16 hours, the medium was replaced with DMEM-10% charcoal-[…] treated fetal calf serum (trade name, HyClone, Catalogue No. SH30068.03) containing a compound of this invention. After culturing at 37° C. for 24 hours, the cells were lysed and determined for its luciferase activity as usual.

human PPARγ receptor = target: T2, human PPARγ receptor (Homo sapiens, UniProt P37231); experiment: Luciferase assay using human PPARγ receptor (Gal4 chimera, CV-1 cells); type: cell-based; conditions: 24 h, luciferase activity of Pioglitazone at 1 μM = 100, read-out: PPARγ agonist activity, Relative activity
T2 construct: expressed in transfected cells; host or cells: CV-1 cells, pSG5-based Gal4-PPAR expression vector
T2 sequence (P37231 204-505): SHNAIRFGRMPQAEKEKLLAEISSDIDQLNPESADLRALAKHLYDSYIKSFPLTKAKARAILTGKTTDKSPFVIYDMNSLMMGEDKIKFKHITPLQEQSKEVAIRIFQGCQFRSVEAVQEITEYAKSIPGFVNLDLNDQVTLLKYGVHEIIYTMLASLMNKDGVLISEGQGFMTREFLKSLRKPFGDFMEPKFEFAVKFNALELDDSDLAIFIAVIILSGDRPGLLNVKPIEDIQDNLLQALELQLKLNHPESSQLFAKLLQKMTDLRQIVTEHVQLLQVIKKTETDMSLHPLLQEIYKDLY
Experimental: as §1, §2, §3, §4, §5, §6
human PPARγ ligand binding region: Ser^176-Tyr^478
which correspond to Ser^204-Tyr^506 in the human PPARγ 1 receptor and PPARγ 2 receptor and thus have the same base sequence, from structural comparison for human PPAR receptors described in R. Mukherjee et al., J. Steroid Biochem. Molec. Biol., Vol. 51, p.157 (1994); M. E. Green et al. (Gene Expression., Vol.4, p.281 (1995). For monitoring an effect on basic transcription, was also prepared an expression vector having encoding only the DNA binding region of the Gal4 protein lacking the PPAR ligand binding region, the 1st to 147th amino acid sequence and a nuclear transition signal for SV-40T-antigen.
as §7, §8, §9

KKAy mouse = experiment: Hypoglycemic and hypolipidemic effects using a diabetic model mouse (KKAy mouse); type: in vivo; conditions: KKAy mice, 30 mg/kg orally once daily for four days, fifth day vs first day; for Reduction rate of a free fatty acid level / Reduction rate of a triglyceride level: plasma
Experimental: Type II diabetic mice “KK-Ay/Ta Jci” (male, Nippon Clare, 10 weeks, five per a group) in each cage were used. In the morning of the initial day of the study, blood was collected from an orbital vein. A glucose level was determined using a new blood sugar test (Boehringer Mannheim) for a centrifuge supernatant after deproteination of the blood with perchloric acid. The blood was centrifuged to prepare a plasma. Then, a triglyceride and a free fatty acid levels in the plasma were determined using Triglyceride E-Test Wako and NEFA-C Test Wako (Wako Pure Chemicals, Inc.), respectively. […] On the fifth day of the study, a blood was collected for determination of a blood glucose level, a triglyceride level and a free fatty acid level. A group to which only 0.5% aqueous CMC solution was administered was used as a control group while a group to which pioglytazone was administered was used as a positive control. A reduction rate for a parameter in each group was calculated using the following equation.

Row | SMILES | Emax at 0.1 µM (human PPARα receptor) [%] | Emax at 1 µM (human PPARα receptor) [%] | Emax at 10 µM (human PPARα receptor) [%] | Emax at 0.1 µM (human PPARγ receptor) [%] | Emax at 1 µM (human PPARγ receptor) [%] | Emax at 10 µM (human PPARγ receptor) [%] | Reduction rate of a blood glucose level (KKAy mouse) [%] | Reduction rate of a free fatty acid level (KKAy mouse) [%] | Reduction rate of a triglyceride level (KKAy mouse) [%]
1 | CCOC(=O)C(C)(Cc1cc2cc(OC)c(OC)cc2s1)Oc1ccc(C#N)cc1 (stereo not drawn) [Example 1] | 0.2 | 0.2 | 0.5 | 0.4 | 3.2 | 81.5 | – | – | –
2 | COc1cc2cc(CC(C)(Oc3ccc(C#N)cc3)C(=O)O)sc2cc1OC (stereo not drawn) [Example 2] | 0.1 | 0.1 | 66.4 | 17.8 | 81.9 | 78.7 | – | – | –
3 | COc1cc2cc(CC(C)(Oc3ccc(C(C)C)cc3)C(=O)O)sc2cc1OC (stereo not drawn) [Example 3, 3-(5,6-dimethoxybenzothiophen-2-yl)-2-(4-isopropylphenoxy)-2-methylpropanoic Acid] | 13.2 | 116 | 111 | 9.5 | 86.7 | 86.1 | – | – | –
4 | COc1cc2sc(CC(C)(Oc3ccc(C(C)C)cc3)C(=O)O)cc2c(Cl)c1OC (stereo not drawn) [Example 4, 3-(4-chloro-5,6-dimethoxybenzothiophen-2-yl)-2-(4-isopropylphenoxy)-2-methylpropanoic Acid] | 0.3 | 2.9 | 249 | 8 | 68 | 69.9 | 58 | 69 | 85
5 | COc1cc2cc(CC(C)(Oc3ccc(C(=N)N4CCOCC4)cc3)C(=O)O)sc2cc1OC (stereo not drawn) [Example 5, 3-(5,6-dimethoxybenzothiophen-2-yl) -2-methyl-2-(4-morpholinoamidinophenoxy)propanoic Acid Hydrochloride] | 0.2 | 0.3 | 0.7 | 0.3 | 0.3 | 3.1 | – | – | –
6 | COc1cc2sc(/C=C(\Oc3ccc(C(C)C)cc3)C(=O)O)cc2c(Cl)c1OC [Example 6, (Z)-3-(4-chloro-5,6-dimethoxybenzothiophen-2-yl)-2-(4-isopropylphenoxy)propenoic Acid] | 0.1 | 0.1 | 0.1 | 1.2 | 19 | 60.1 | – | – | –
7 | CCOC(=O)C(C)(Cc1cc2ccccc2s1)C(N)=O (stereo not drawn) [Example 8, 2-(benzothiophen-2-yl)methyl-2-methylmalonamide Ethyl Ester] | 0.1 | 0.1 | 0.2 | 0.3 | 0.3 | 0.3 | – | – | –
8 | CC(Cc1cc2ccccc2s1)(C(=O)O)C(=O)NC1CCCCC1 (stereo not drawn) [Example 10, 2-(benzothiophen-2-yl)methyl-2-methylmalonic Acid N-cyclohexylamide] | 0.1 | 0.1 | 20.7 | 1.2 | 2.1 | 31.2 | – | – | –
9 | CC(Cc1cc2ccccc2s1)(C(=O)O)C(=O)N1CCOCC1 (stereo not drawn) [Example 11, 2-(benzothiophen-2-yl)methyl-2-methylmalonic Acid N-morpholinoamide] | 0.1 | 0.2 | 0.3 | 0.3 | 0.3 | 0.3 | – | – | –
10 | CC(C)c1ccc(NC(=O)C(C)(Cc2cc3ccccc3s2)C(=O)O)cc1 (stereo not drawn) [Example 12, 2-(benzothiophen-2-yl)methyl-2-methylmalonic Acid N-(4-isopropylphenyl)amide] | 0.2 | 0.2 | 0.2 | 0.3 | 0.3 | 0.5 | – | – | –
11 | COc1cc2cc(CC(C)(C(=O)O)C(=O)NC3CCCCC3)sc2cc1OC (stereo not drawn) [Example 14, 2-(5,6-dimethoxybenzothiophen-2-yl)methyl-2-methylmalonic Acid N-cyclohexylamide] | 0.2 | 0.2 | 0.6 | 0.3 | 0.3 | 0.5 | – | – | –
12 | COc1cc2cc(CC(C)(Oc3ccc(C#N)cc3)C(N)=O)sc2cc1OC (stereo not drawn) [Example 15] | 0.2 | 0.2 | 0.1 | 0.5 | 0.4 | 1.1 | – | – | –
13 | CCCCNC(=O)C(C)(Cc1cc2cc(OC)c(OC)cc2s1)Oc1ccc(C#N)cc1 (stereo not drawn) [Example 16] | 0.2 | 0.2 | 0.1 | 0.4 | 0.4 | 0.3 | – | – | –
14 | CCc1ccc(CCOc2ccc(CC3SC(=O)NC3=O)cc2)nc1 (stereo not drawn) [Pioglytazone, Pioglitazone, reference compound] | – | – | – | – | – | – | 28 | 49 | 60
